# Reference: the supplement of paper PMC10307832
# Legend:
# Assay in all cases: relative viability (nuclei count vs DMSO), 5 days (fraction); higher = more cells survive
# Linifanib + Olaparib = compound: Cc1ccc(F)c(NC(=O)Nc2ccc(-c3cccc4[nH]nc(N)c34)cc2)c1 [Linifanib] + O=C(c1cc(Cc2n[nH]c(=O)c3ccccc23)ccc1F)N1CCN(C(=O)C2CC2)CC1 [Olaparib] (partner 8 µM)
# Method in brief: (§1)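 Values are medians from duplicate plates. Each reflects relative viability, defined as the nuclei count of treated wells over that of vehicle wells. Lung cancer cell lines in 1536-well plates were pin-tool dosed one day after seeding with one drug alone or with a fixed anchor-drug dose plus five library-drug doses (not always all listed) in √10 steps, then fixed, stained and imaged at 4× after 5 days.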
# Linifanib + Decitabine = compound: Cc1ccc(F)c(NC(=O)Nc2ccc(-c3cccc4[nH]nc(N)c34)cc2)c1 [Linifanib] + Nc1ncn([C@H]2C[C@H](O)[C@@H](CO)O2)c(=O)n1 [Decitabine] (partner 2 µM)
# Method in brief: as §1
# Linifanib + Vorinostat = compound: Cc1ccc(F)c(NC(=O)Nc2ccc(-c3cccc4[nH]nc(N)c34)cc2)c1 [Linifanib] + O=C(CCCCCCC(=O)Nc1ccccc1)NO [Vorinostat] (partner 1 µM)
# Method in brief: as §1
# Linifanib + AZD7762 = compound: Cc1ccc(F)c(NC(=O)Nc2ccc(-c3cccc4[nH]nc(N)c34)cc2)c1 [Linifanib] + NC(=O)Nc1cc(-c2cccc(F)c2)sc1C(=O)N[C@H]1CCCNC1 [AZD7762] (partner 0.2 µM)
# Method in brief: as §1
# Linifanib + Navitoclax = compound: Cc1ccc(F)c(NC(=O)Nc2ccc(-c3cccc4[nH]nc(N)c34)cc2)c1 [Linifanib] + CC1(C)CCC(c2ccc(Cl)cc2)=C(CN2CCN(c3ccc(C(=O)NS(=O)(=O)c4ccc(N[C@H](CCN5CCOCC5)CSc5ccccc5)c(S(=O)(=O)C(F)(F)F)c4)cc3)CC2)C1 [Navitoclax] (partner 0.5 µM)
# Method in brief: as §1
# Linifanib + Bortezomib = compound: Cc1ccc(F)c(NC(=O)Nc2ccc(-c3cccc4[nH]nc(N)c34)cc2)c1 [Linifanib] + CC(C)C[C@H](NC(=O)[C@H](Cc1ccccc1)NC(=O)c1cnccn1)B(O)O [Bortezomib] (partner 0.002 µM)
# Method in brief: as §1
Cell Line,relative viability (Linifanib + Olaparib; first compound 0.03162 µM),relative viability (Linifanib + Olaparib; first compound 0.1 µM),relative viability (Linifanib + Olaparib; first compound 0.3162 µM),relative viability (Linifanib + Decitabine; first compound 0.03162 µM),relative viability (Linifanib + Decitabine; first compound 0.1 µM),relative viability (Linifanib + Decitabine; first compound 0.3162 µM),relative viability (Linifanib + Vorinostat; first compound 0.03162 µM),relative viability (Linifanib + Vorinostat; first compound 0.1 µM),relative viability (Linifanib + Vorinostat; first compound 0.3162 µM),relative viability (Linifanib + AZD7762; first compound 0.03162 µM),relative viability (Linifanib + AZD7762; first compound 0.1 µM),relative viability (Linifanib + AZD7762; first compound 0.3162 µM),relative viability (Linifanib + Navitoclax; first compound 0.03162 µM),relative viability (Linifanib + Navitoclax; first compound 0.1 µM),relative viability (Linifanib + Navitoclax; first compound 0.3162 µM),relative viability (Linifanib + Bortezomib; first compound 0.03162 µM),relative viability (Linifanib + Bortezomib; first compound 0.1 µM),relative viability (Linifanib + Bortezomib; first compound 0.3162 µM)
HCC-78,0.946,0.77,0.943,0.784,0.752,0.717,0.419,0.427,0.455,0.629,0.595,0.599,0.791,0.74,0.792,0.455,0.429,0.472
HCC-366,0.337,0.458,0.323,0.417,0.328,0.336,0.371,0.378,0.359,0.181,0.243,0.221,1.12,1.11,0.874,1,1.1,1.02
HCC-827,0.651,0.711,0.654,0.32,0.31,0.331,0.792,0.814,0.802,0.204,0.231,0.275,1.02,1.02,1,1.04,0.991,0.977
HOP-62,0.546,0.243,0.534,0.194,0.197,0.2,0.803,0.643,0.604,0.569,0.586,0.4,1,1.07,0.859,0.617,0.969,0.728
LC-2-ad,0.729,0.705,0.55,0.759,0.799,0.836,0.83,0.7,0.73,0.871,0.878,0.804,0.48,0.553,0.429,0.976,1.23,0.98
LCLC-97TM1,0.453,0.402,0.502,0.222,0.228,0.249,0.739,0.807,0.603,0.262,0.229,0.29,0.436,0.417,0.321,0.866,0.868,0.56
LOU-NH91,0.909,0.956,0.869,0.812,0.785,0.814,0.969,0.975,0.943,0.752,0.816,0.739,0.656,0.753,0.594,0.47,0.548,0.463
LU99A,0.289,0.25,0.287,0.932,1.02,0.824,0.497,0.43,0.505,0.378,0.433,0.356,0.747,0.775,0.743,1.13,1.16,1.21
LXF-289,1.13,1.2,0.898,0.376,0.355,0.326,0.85,0.762,0.807,1.11,1.15,0.934,0.936,0.953,0.883,1.04,1.01,0.952
NCI-H23,0.358,0.347,0.186,0.355,0.308,0.343,0.771,0.688,0.566,0.259,0.287,0.31,0.98,0.99,0.61,1.03,1.2,1.16
NCI-H322M,0.832,0.809,0.796,0.732,0.697,0.77,0.848,0.914,0.876,0.594,0.581,0.552,1.25,1.14,1.17,1.24,1.21,1.27
NCI-H441,0.673,0.5,0.433,0.264,0.291,0.253,0.626,0.81,0.658,1.03,1.23,0.958,0.705,0.637,0.591,0.496,0.43,0.371
NCI-H460,0.539,0.464,0.471,0.492,0.583,0.475,0.713,0.877,0.596,0.614,0.555,0.562,1.1,1.45,1,1.03,1.18,0.925
NCI-H596,0.633,0.615,0.724,0.915,1.01,1.06,0.604,0.624,0.689,1.16,1.28,1.15,1.12,1.04,0.882,0.899,1.06,1.08
NCI-H647,0.678,0.68,0.54,0.339,0.368,0.481,0.638,0.672,0.516,0.435,0.557,0.389,1.23,1.03,1.01,1.25,1.14,1.07
NCI-H727,0.938,0.744,0.784,0.883,0.885,0.88,1.29,1.18,1.09,0.602,0.62,0.358,0.407,0.402,0.415,0.934,0.922,0.702
NCI-H838,0.753,0.783,0.71,0.521,0.472,0.443,0.724,0.711,0.686,0.907,0.952,0.953,1.19,1.15,1.16,1.24,1.08,0.968
